Reference: patent US12077503B2, “Substituted cyclic amides and their use as herbicides” (FMC CORPORATION, priority 2015, dated 2024)

Experiments:
Format in all cases: in vivo
[1] = system: ducksalad (Heteranthera limosa); assay: Test B flooded paddy test; settings: Heteranthera limosa, 250 g ai/ha, Flood; 0 to 100 scale where 0 is no effect and 100 is complete control; read-out: Ducksalad plant response rating
Outline: (§1)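 2-leaf plants; pots flooded 3 cm over soil; cpd added to paddy water; depth held; greenhouse 13–15 d; visual rating vs controls, 0 = no effect, 100 = complete control.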

rice (Oryra sativa) = assay: Test B flooded paddy test; settings: Oryza sativa, 250 g ai/ha, Flood; 0 to 100 scale where 0 is no effect and 100 is complete control; read-out: Rice plant response rating
Outline: as §1

[2] = system: sedge, umbrella (small-flower umbrella sedge, Cyperus difformis); assay: Test B flooded paddy test; settings: Cyperus difformis, 250 g ai/ha, Flood; 0 to 100 scale where 0 is no effect and 100 is complete control; read-out: Sedge, Umbrella plant response rating
Outline: as §1

[3] = system: barnyardgrass (Echinochloa crus-galli); assay: Test B flooded paddy test; settings: Echinochloa crus-galli, 250 g ai/ha, Flood; 0 to 100 scale where 0 is no effect and 100 is complete control; read-out: Barnyardgrass plant response rating
Outline: as §1

corn (Zea mays) = assay: Test A postemergence; settings: Zea mays, post-emergence, 240 h
Outline: (§2)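 Preemergence directed soil spray on seeded pots, or postemergence application to plants 2–10 cm, one- to two-leaf. Solvent mixture non-phytotoxic, with surfactant. Scored ~10 d later, visually, 0–100 vs untreated.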

[4] = system: wheat (Triticum aestivum); assay: Test A postemergence; settings: Triticum aestivum, post-emergence, 240 h, read-out: Plant response rating, Wheat
Outline: as §2

[5] = system: giant foxtail (Setaria faberii); assay: Test A postemergence; settings: Setaria faberi, post-emergence, 240 h, read-out: Plant response rating, Foxtail, Giant
Outline: as §2

[6] = system: ryegrass, Italian (Italian ryegrass, Lolium multiflorum); assay: Test A postemergence; settings: Lolium multiflorum, post-emergence, 240 h, read-out: Plant response rating, Ryegrass, Italian
Outline: as §2

[7] = system: Galium (catchweed bedstraw, Galium aparine); assay: Test A postemergence; settings: Galium, post-emergence, 240 h, read-out: Plant response rating, Galium
Outline: as §2

[8] = system: pigweed (Amaranthus retroflexus); assay: Test A postemergence; settings: Amaranthus retroflexus, post-emergence, 240 h, read-out: Plant response rating, Pigweed
Outline: as §2

Kochia (Kochia scoparia) [9] = assay: Test A postemergence; settings: Bassia scoparia, post-emergence, 240 h, read-out: Plant response rating, Kochia
Outline: as §2

[10] = system: blackgrass (Alopecurus myosuroides); assay: Test A postemergence; settings: Alopecurus myosuroides, post-emergence, 240 h, read-out: Plant response rating, Blackgrass
Outline: as §2

[11] = system: barnyardgrass (Echinochloa crus-galli); assay: Test A postemergence; settings: Echinochloa crus-galli, post-emergence, 240 h, read-out: Plant response rating, Barnyardgrass
Outline: as §2

[12] = system: ragweed (common ragweed, Ambrosia elatior); assay: Test A postemergence; settings: Ambrosia artemisiifolia, post-emergence, 240 h, read-out: Plant response rating, Ragweed
Outline: as §2

[13] = system: giant foxtail (Setaria faberii); assay: Test A preemergence; settings: Setaria faberi, pre-emergence, 240 h
Outline: as §2

[14] = system: ryegrass, Italian (Italian ryegrass, Lolium multiflorum); assay: Test A preemergence; settings: Lolium multiflorum, pre-emergence, 240 h
Outline: as §2

[15] = system: pigweed (Amaranthus retroflexus); assay: Test A preemergence; settings: Amaranthus retroflexus, pre-emergence, 240 h
Kochia (Kochia scoparia) [16] = assay: Test A preemergence; settings: Bassia scoparia, pre-emergence, 240 h
Outline: as §2

[17] = system: barnyardgrass (Echinochloa crus-galli); assay: Test A preemergence; settings: Echinochloa crus-galli, pre-emergence, 240 h
Outline: as §2

[18] = system: ragweed (common ragweed, Ambrosia elatior); assay: Test A preemergence; settings: Ambrosia artemisiifolia, pre-emergence, 240 h
Outline: as §2

[19] = 125 g ai/ha, Postemergence, visual injury after approximately 10 d, 0 to 100 scale where 0 is no effect and 100 is complete control
[20] = 500 g ai/ha, postemergence, visual injury, 0 to 100 scale (0 no effect, 100 complete control), approx. 10 d

CSc1ccccc1NC(=O)[C@H]1C(=O)N(C)CC[C@@H]1c1ccc(OC(F)(F)F)cc1 [Compound 1001]
0%: pest or weed control at 250 g/ha [1] | pest or weed control at 250 g/ha (rice (Oryra sativa)) | pest or weed control at 250 g/ha [2] | pest or weed control at 250 g/ha [3] | Corn plant response rating (crop injury, 0 = no effect, 100 = complete kill) at 125 g/ha (corn (Zea mays); [19]) | Corn plant response rating (crop injury, 0 = no effect, 100 = complete kill) at 500 g/ha (corn (Zea mays); [20]) | plant injury at 125 g/ha [4, 19] | plant injury at 500 g/ha [4, 20] | pest or weed control at 125 g/ha [5, 19] | pest or weed control at 500 g/ha [5, 20] | pest or weed control at 125 g/ha [6, 19] | pest or weed control at 500 g/ha [6, 20] | pest or weed control at 125 g/ha [7, 19] | pest or weed control at 500 g/ha [7, 20] | pest or weed control at 125 g/ha [8, 19] | pest or weed control at 500 g/ha [8, 20] | pest or weed control at 125 g/ha (Kochia (Kochia scoparia) [9]; [19]) | pest or weed control at 500 g/ha (Kochia (Kochia scoparia) [9]; [20]) | pest or weed control at 125 g/ha [10, 19] | pest or weed control at 500 g/ha [10, 20] | pest or weed control at 125 g/ha [11, 19] | pest or weed control at 500 g/ha [11, 20] | pest or weed control at 125 g/ha [12, 19] | pest or weed control at 500 g/ha [12, 20] | pest or weed control at 125 g/ha ([13]; 125 g ai/ha, Preemergence, visual injury rating after approximately 10 d, read-out: Foxtail, Giant plant response rating (0 to 100 scale, 0 is no effect, 100 is complete control)) | pest or weed control at 500 g/ha ([13]; 500 g ai/ha, preemergence, visual injury rating about 10 d after treatment, 0 to 100 scale (0 no effect, 100 complete control), read-out: Foxtail, Giant plant response rating) | pest or weed control at 125 g/ha ([14]; 125 g ai/ha, Preemergence, visual injury rating after approximately 10 d, read-out: Ryegrass, Italian plant response rating (0 to 100 scale, 0 is no effect, 100 is complete control)) | pest or weed control at 500 g/ha ([14]; 500 g ai/ha, preemergence, visual injury rating about 10 d after treatment, 0 to 100 scale (0 no effect, 100 complete control), read-out: Ryegrass, Italian plant response rating) | pest or weed control at 125 g/ha ([15]; 125 g ai/ha, Preemergence, visual injury rating after approximately 10 d, read-out: Pigweed plant response rating (0 to 100 scale, 0 is no effect, 100 is complete control)) | pest or weed control at 500 g/ha ([15]; 500 g ai/ha, preemergence, visual injury rating about 10 d after treatment, 0 to 100 scale (0 no effect, 100 complete control), read-out: Pigweed plant response rating) | pest or weed control at 125 g/ha (Kochia (Kochia scoparia) [16]; 125 g ai/ha, Preemergence, visual injury rating after approximately 10 d, read-out: Kochia plant response rating (0 to 100 scale, 0 is no effect, 100 is complete control)) | pest or weed control at 500 g/ha (Kochia (Kochia scoparia) [16]; 500 g ai/ha, preemergence, visual injury rating about 10 d after treatment, 0 to 100 scale (0 no effect, 100 complete control), read-out: Kochia plant response rating) | pest or weed control at 125 g/ha ([17]; 125 g ai/ha, Preemergence, visual injury rating after approximately 10 d, read-out: Barnyardgrass plant response rating (0 to 100 scale, 0 is no effect, 100 is complete control)) | pest or weed control at 500 g/ha ([17]; 500 g ai/ha, preemergence, visual injury rating about 10 d after treatment, 0 to 100 scale (0 no effect, 100 complete control), read-out: Barnyardgrass plant response rating) | pest or weed control at 125 g/ha ([18]; 125 g ai/ha, Preemergence, visual injury rating after approximately 10 d, read-out: Ragweed plant response rating (0 to 100 scale, 0 is no effect, 100 is complete control)) | pest or weed control at 500 g/ha ([18]; 500 g ai/ha, preemergence, visual injury rating about 10 d after treatment, 0 to 100 scale (0 no effect, 100 complete control), read-out: Ragweed plant response rating)
